This is an account of results in article PMC9606943, “Synthesis and Chemopreventive Potential of 5-FU/Genistein Hybrids on Colorectal Cancer Cells” (Pharmaceuticals, 2022).

Read-outs that look alike come from different tables or passages of the source.

In one data set the test system is SW480. As to the kind of experiment: Sulforhodamine B cytotoxicity assay, SW480. It counts as cell-based, human. Particulars: 48 h; for IC50: mean ± SE. On the procedure:
(§1) Two colon cancer cells (SW480 and SW620) and non-malignant cell lines (human keratinocytes, HaCaT; chinese hamster ovary, CHO-K1) were obtained from The European Collection of Authenticated Cell Cultures (ECACC, England). For biological evaluations, cells were cultured in Dulbecco’s Modified Eagle Medium, supplemented with 10% heat-inactivated (56 °C) horse serum, 1% penicillin/streptomycin and 1% non-essential amino acids (Gibco Invitrogen, Carlsbad, CA, USA). During the treatments, the serum was reduced to 3%, and the medium was supplemented with insulin ([…]) transferrin ([…]) and selenium (5 ng/mL) (ITS-defined medium; Gibco, Invitrogen, Carlsbad, USA). To avoid Mycoplasma spp. contamination, cell cultures were regularly tested by polymerase chain reaction.
(§2) Briefly, cells were seeded at 20,000 cells/well (for cytotoxicity assay) and 2500 cells/well (for the antiproliferative test) in 96-well tissue culture plates, incubating at 37 °C in a humidified atmosphere with 5% CO2. After the adaptation time (24 h), cells were treated with increasing concentrations of the hybrid molecules or DMSO (1%). At the end of each treatment, cells were fixed with trichloroacetic acid (50% v/v; MERCK) for one hour at 4 °C. Subsequently, cell proteins were stained with SRB (0.4% w/v; Sigma-Aldrich, United States) and washed with acetic acid (1%). After drying at room temperature, Tris-base (10 mM) was added to solubilize protein bound stain. Absorbance was read in a microplate reader (Mindray MR-96A) at 492 nm. All experiments were performed at least in duplicate.

The subject of data set [1] is SW620. The experiment in a line: Sulforhodamine B cytotoxicity assay, SW620. It counts as cell-based, human. Particulars: 48 h; for IC50: mean ± SE. The procedure:
as §1, §2

For another data set, the system named is HaCaT. The experiment in a line: Sulforhodamine B cytotoxicity assay, HaCaT. The format is cell-based, human. The settings on record: 48 h, mean ± SE, non-malignant cells. The procedure:
as §1, §2

The next data set relates to CHO-K1. The experiment in a line: Sulforhodamine B cytotoxicity assay, CHO-K1. The format is cell-based, chinese hamster. The settings on record: 48 h, mean ± SE, non-malignant cells. On the procedure: as §1, §2
Data set [2] concerns SW620. The experiment in a line: Antiproliferative activity (sulforhodamine B), SW620. The settings on record: dose- and time-dependent, from day 2 above 12.5 µM, from day 4 at 6.25 µM. The format is cell-based, human. On the procedure: as §2
The subject of data set [3] is SW620 cells. As to the kind of experiment: Cell cycle distribution (PI, flow cytometry), SW620. The format is cell-based, human. The settings on record: 48 h, IC50 concentration, versus DMSO control. The procedure:
Cell cycle analysis was evaluated by flow cytometry using propidium iodide (PI). This experiment was carried out as previously described by Nicoletti et al. (1991). Then, 48 h after treatment with the IC50 value of the hybrids 4a, 4g and DMSO (1%) as a vehicle control, cells were collected by scraping and centrifugation, resuspending the cell pellet in a versene buffer. Thereafter, cells were fixed with 1.8 mL cold ethanol (70%) at 4 °C overnight. Alcohol was removed by subsequent washing twice with versene buffer. The final pellet was resuspended in 300 µL of PBS with 0.25 mg/mL RNAse (Type I-A, Sigma-Aldrich, Germany) and 0.1 mg/mL PI and incubated for 30 min in the dark at room temperature. FACS Canto II flow cytometer (BD Biosciences, USA) was used to read the PI fluorescence of 10,000 events. The analysis of data was performed with the software FlowJo 7.6.2 (Ashland, OR, USA).

Data set [4] concerns SW620 cells. The experiment in a line: Mitochondrial membrane potential and plasma membrane integrity (DiOC6/PI), SW620. The format is cell-based, human. Particulars: 48 h, IC50 concentration. The procedure:
The fluorescent dyes DiOC6 (3,3′-dihexyloxacarbocyanine iodide, Thermo Fisher Scientific, Waltham, MA, USA) and propidium iodide (PI) were used to evaluate possible changes in mitochondrial membrane potential induced by the hybrid molecules. Then, 2.5 × 10^5 cells/well were seeded in 6-well tissue culture plates and allowed to grow for 24 h. Then, these were treated with hybrids 4a and 4g (with the IC50 value for each compound). Cells were harvested by scrapping 48 h after treatment, stained with DiOC6 and propidium iodide (PI) at room temperature for 30 min in darkness. Flow cytometric analysis of 10,000 events was carried out to quantify cells with mitochondrial depolarization, excitation at 488 nm and detection of the emission with the green (530/15 nm) and the red (610/20 nm) filters.

For data set [5], the system named is SW620 cells.
Procedure: (§3) SW480 and SW620 cells were treated for 48 h and further collected by scraping. After centrifugation, the cell pellet was resuspended in Annexin V/FITC–PI and incubated in darkness for 20 min. Data were obtained through flow cytometry and analyzed with FlowJo 7.6.2 (Ashland, OR, USA). […] Cells with positive staining for PI were considered dead cells, late apoptotic cells, necroptotic cells or secondary necrotic cells. All assays were repeated twice [56].
The test system of data set [6] is SW620 cells. As to the kind of experiment: Cell death induction (Annexin V/FITC and PI), SW620. Particulars: 48 h.
Procedure: as §3
The subject of the next data set is normal VERO cells. Particulars: cited from earlier work.
Data set [7] relates to human gastric cancer cell line (SGC-7901). More on the design: method as in doi:10.1039/C6MD00268D. Particulars: cited from earlier work.

For “5-fluoro-1-((1-(3-((5-hydroxy-3-(4-hydroxyphenyl)-4-oxo-4H-chromen-7-yl)oxy)butyl)-1H-1,2,3-triazol-4-yl)methyl)pyrimidine-2,4(1H,3H)-dione [4c]”, the 50% inhibitory concentration (IC50) with SW480, in the data set with SW620 [1], with HaCaT and in the data set with CHO-K1 was over 100 µM in each case.

On to “5-fluoro-1-((1-(3-((5-hydroxy-3-(4-hydroxyphenyl)-4-oxo-4H-chromen-7-yl)oxy)dodecyl)-1H-1,2,3-triazol-4-yl)methyl)pyrimidine-2,4(1H,3H)-dione”, for which the IC50 in the data set on SW480 is over 100 µM; with SW620 [1], 83.6 ± 8.05 µM; in the data set on HaCaT, over 100 µM; in the data set on CHO-K1, over 100 µM. The “Selectivity Index (SI) CHO-K1/620” value in the data set with SW620 [1] was over 1.20. In addition, the “Selectivity Index (SI) HaCaT/SW620” value in the data set with SW620 [1] is over 1.20.

Consider “5-fluoro-1-((1-(3-((5-hydroxy-3-(4-hydroxyphenyl)-4-oxo-4H-chromen-7-yl)oxy)hexyl)-1H-1,2,3-triazol-4-yl)methyl)pyrimidine-2,4(1H,3H)-dione [4e]”, for which the IC50 with SW480, with SW620 [1], in the data set with HaCaT and in the data set with CHO-K1 was over 100 µM each time.

For the molecule “5-fluoro-1-((1-(3-((5-hydroxy-3-(4-hydroxyphenyl)-4-oxo-4H-chromen-7-yl)oxy)nonyl)-1H-1,2,3-triazol-4-yl)methyl)pyrimidine-2,4(1H,3H)-dione [4g]”, the IC50 was over 100 µM in the data set with SW480, 36.8 ± 0.71 µM with SW620 [1], over 100 µM in the data set on HaCaT and over 100 µM in the data set on CHO-K1. Moreover, the “Selectivity Index (SI) CHO-K1/620” value in the data set with SW620 [1] is over 2.71. The “Selectivity Index (SI) HaCaT/SW620” value with SW620 [1] is listed as over 2.71. The “Antiproliferative activity (cell viability)” value with SW620 [2] is “significant decrease in the percentages of cell viability”. Besides, the “Effect on cell cycle distribution” value in the data set on SW620 cells [3] was “important decrease in the population of cells in S-phase with a slight increase in G0/G1”. For the same molecule, in the data set with SW620 cells [4], the “Change in mitochondrial membrane potential” value is listed as “do not induce significant changes in mitochondrial membrane potential”. Besides, the “Q3 (viable cells per legend)” value in the data set on SW620 cells [5] is 0,00%. Also, the “Plasma membrane integrity / cell death” value in the data set on SW620 cells [6] is recorded as “caused a loss in membrane integrity”.

As for “5-fluoro-1-((1-(3-((5-hydroxy-3-(4-hydroxyphenyl)-4-oxo-4H-chromen-7-yl)oxy)octyl)-1H-1,2,3-triazol-4-yl)methyl)pyrimidine-2,4(1H,3H)-dione [4f]”, in the data set on SW480, the “Selectivity Index (SI) CHO-K1/SW480” value is recorded as over 1.02, the “Selectivity Index (SI) HaCaT/SW480” value came to 0.51 and 97.5 ± 5.04 µM corresponded to half-maximal inhibition (IC50). Further, in the data set on SW620 [1], the “Selectivity Index (SI) CHO-K1/620” value was over 2.11, the “Selectivity Index (SI) HaCaT/SW620” value turned out to be 1.05 and the IC50 turned out to be 47.4 ± 2.19 µM. For the same molecule, in the data set on HaCaT, the IC50 was 50 ± 7.17 µM. This molecule showed an IC50 in the data set on CHO-K1 of over 100 µM.

As to “5-fluoro-1-((1-(3-((5-hydroxy-3-(4-hydroxyphenyl)-4-oxo-4H-chromen-7-yl)oxy)pentyl)-1H-1,2,3-triazol-4-yl)methyl)pyrimidine-2,4(1H,3H)-dione [4d]”, the IC50 in the data set with SW480, with SW620 [1], with HaCaT and in the data set on CHO-K1 was over 100 µM in each case.

`O=c1[nH]c(=O)n(Cc2cn(CCCOc3cc(O)c4c(=O)c(-c5ccc(O)cc5)coc4c3)nn2)cc1F` [4b, 5-fluoro-1-((1-(3-((5-hydroxy-3-(4-hydroxyphenyl)-4-oxo-4H-chromen-7-yl)oxy)propyl)-1H-1,2,3-triazol-4-yl)methyl)pyrimidine-2,4(1H,3H)-dione] came in with a melting point of 175 to 178 °C. Further, the IC50 in the data set on SW480 (Homo sapiens, SW480) was over 100 µM. The IC50 in the data set on SW620 [1] (Homo sapiens, SW-620) is over 100 µM. In the data set on HaCaT (Homo sapiens, HaCaT), this molecule returned an IC50 of over 100 µM. In the data set on CHO-K1 (Cricetulus griseus, CHO-K1), this molecule came in with an IC50 of over 100 µM.

With `O=c1[nH]cc(F)c(=O)[nH]1` [5-FU, 5-fluorouracil], in the data set on SW480, the “Selectivity Index (SI) CHO-K1/SW480” value worked out at 0.99 and the “Selectivity Index (SI) HaCaT/SW480” value is recorded as 0.68. Also, the IC50 in the data set with normal VERO cells was 3.33 µM. Moreover, the “selectivity index SGC-7901 versus GES-1” value in data set [7] (at 50 µM) is given as 0.88. Moreover, in data set [7] (at the concentration of 10 µM), the “selectivity index SGC-7901 versus GES-1” value is 0.74.

With `O=C(Cn1cc(F)c(=O)[nH]c1=O)OCC[n+]1ccc(/C=C/c2c[nH]c3ccccc23)cc1` [C1], the “selectivity index SGC-7901 versus GES-1” value in data set [7] (at the concentration of 10 µM) is reported as 1.16.

Turning to `O=C(Cn1cc(F)c(=O)[nH]c1=O)NCC[n+]1ccc(/C=C/c2c[nH]c3ccccc23)cc1` [C2], the “selectivity index SGC-7901 versus GES-1” value in data set [7] (at 50 µM) was 1.20; in data set [7] (at the concentration of 10 µM), 1.08.

Turning to `O=c1c(-c2ccc(O)cc2)coc2cc(O)cc(O)c12` [Genistein], the “Selectivity Index (SI) CHO-K1/SW480” value in the data set on SW480 is listed as 1.01. The “Selectivity Index (SI) HaCaT/SW480” value with SW480 is 0.95. Also, the IC50 stood at 48.1 ± 3.03 µM in the data set with SW480 (Homo sapiens, SW480); 75.8 ± 5.83 µM in the data set on SW620 [1] (Homo sapiens, SW-620); 45.9 ± 1.97 µM in the data set on HaCaT (Homo sapiens, HaCaT); 48.4 ± 4.13 µM in the data set with CHO-K1 (Cricetulus griseus, CHO-K1). Also, in the data set on SW620 [1], the “Selectivity Index (SI) CHO-K1/620” value is on record as 0.64. The “Selectivity Index (SI) HaCaT/SW620” value in the data set with SW620 [1] stood at 0.63.
